Assay results from patent publication US8232107B2, “Methods for measuring the metabolism of neurally derived biomolecules in vivo” (Washington University in St. Louis, priority 2005, dated 2012).

Legend:
[1] = in vivo, iv, 2 mg/kg
Source text: All human studies were approved by the Washington University Human Studies Committee and the General Clinical Research Center (GCRC) Advisory Committee. Informed consent was obtained from all participants. All participants were screened to be in good general health and without neurologic disease. Seven men and three women (23-45 yrs old) participated. Each research participant was admitted to the GCRC at 7:00 AM after an overnight fast from 8 PM the preceding evening. The GCRC Research Kitchen provided meals (60% carbohydrate, 20% fat, 20% protein, low leucine diet during labeled leucine infusion) at 9 AM, 1 PM, and 6 PM and the participant had free access to water. All food and water consumption was recorded during the admission by nursing staff and the GCRC kitchen. One intravenous catheter was placed in an antecubital vein and used to administer the stable isotope labeled leucine solution. A second intravenous catheter was placed in the contra-lateral antecubital vein to obtain blood samples. A subarachnoid catheter was inserted at the L3-L4 interspace via a Touhy needle, so that CSF could be sampled without performing multiple lumbar punctures (Williams, 2002, Neurology 58: 1859-1860). […]
Every hour, 10 ml of plasma was obtained through the other IV. […] To obtain amino acid sequence and abundance data, these parent ions were subjected to collision induced dissociation (CID 28%), and tandem MS analysis of their doubly-charged species ([M+2H]^+2; m/z 663.6 and 666.6) were scanned in selected reaction monitoring mode (SRM), so that the y- and b-series ions generated were used for isotope ratio quantitation (FIG. 6). […]
Plasma and CSF samples were analyzed to determine the amount of labeled leucine present in each fluid (FIG. 9). The labeled to unlabeled leucine ratios for plasma and CSF ^13C6-leucine were quantified using capillary gas chromatography-mass spectrometry (GC-MS) (Yarasheski et al. 2005, Am J. Physiol. Endocrinol. Metab. 288: E278-284; Yarasheski et al. 1998 Am J. Physiol. 275: E577-583), which is more appropriate than LC-ESI-MS for low mass amino acid analysis.

[2] = Measurement of ApoE metabolism in vivo (CSF, WUE4 affinity purification, nanoLC tandem MS); design: species or system human
Source text: As depicted in FIG. 13, human ApoE was immunoprecipitated from CSF or astrocyte cell culture media using WUE4, a specific anti-human ApoE monoclonal (anti-ApoE) antibody. An immortalized astrocyte cell line from transgenic mice expressing human ApoE was used to produce ^13C6-labeled leucine ApoE standards. Immunoprecipitated ApoE was then digested with sequencing-grade trypsin. Released peptides were separated by nano liquid chromatography and quantitated by tandem mass spectrometry (nanoLC-MS). The efficiency and selectivity of the immuno-affinity purification was confirmed by analyzing the samples following a general proteomics LC-MS method. Results from Bioworks™3.2, using the SEQUEST algorithm, confirmed ApoE was the predominant protein present in samples, and identified the most abundant peptides containing leucines, which could be used for quantitation. Due to the 6 Da mass shift of a ^13C6-labeled leucine, unlabeled peptides were distinguishable from labeled peptides. Tandem MS was performed on the peptides of interest, and the percent of ^13C-leucine incorporated into ApoE was determined by calculating the ratio of labeled product ions to unlabeled product ions. The excellent linearity from 0-25% labeling (R^2=0.99) indicates the method developed to measure ApoE is sensitive, specific, and accurate.
CSF was collected every hour for 36 hours.

[3] = In vivo labeling of Aβ in human CSF, immunoprecipitation-MS/MS, calculation of FSR and FCR
Procedure: Informed consent was obtained from all participants. […] CSF samples were obtained hourly throughout the study.
Aβ metabolic labeling curves of three participants are presented in FIG. 8. ^13C6-labeled leucine was infused through one IV at a rate of 1.9 (circles), 2.5 (triangles), or 2.5 (squares) mg/kg/hr for 12 (circles, triangles) or 9 (squares) hours. Each hour, 10 ml of plasma and 6 ml of CSF were obtained through the other IV and the lumbar catheter, respectively. There was a 5-hour lag time before significant rises in labeled Aβ was detected. This was followed by a 9 (squares) or 12 (triangles or circles) hour increase in labeled Aβ until it plateaued for another 5 hours.
For each hourly sample of CSF collected, the ratio of labeled to unlabeled Aβ was determined by immunoprecipitation-MS/MS, as described above. The MS/MS ions from ^13C6-labeled Aβ17-28 were divided by the MS/MS ions from unlabeled Aβ17-28 to produce a ratio of labeled Aβ to unlabeled Aβ (see TTR formula, above). There was no measurable labeled Aβ for the first 4 hours, followed by an increase from 5 to 13 hours. There was no significant change from 13 to 24 hours. The labeled Aβ decreased from 24 to 36 hours.
[formula] Where (Et2-Et1)Aβ/(t2-t1) is defined as the slope of labeled Aβ during labeling and the Precursor E is the ratio of labeled leucine. FSR, in percent per hour, was operationally defined as the slope of the linear regression from 6 to 15 hours divided by the average of CSF ^13C6-labeled leucine level during infusion (see FIG. 11A-C). For example, a FSR of 7.6% per hour means that 7.6% of total Aβ was produced each hour.
The fractional clearance rate (FCR) was calculated by fitting the slope of the natural logarithm of the clearance portion of the labeled Aβ curve, according to the following formula: […]
The FCR was operationally defined as the natural log of the labeled Aβ from 24 to 36 hours (FIG. 11D-F). For example, a FCR of 8.3% per hour means that 8.3% of total Aβ was cleared each hour. The average FSR of Aβ for these 6 healthy young participants was 7.6%/hr and the average FCR was 8.3%/hr (FIG. 12). These values were not statistically different from each other.

Molecule: CC(C)C[C@H](N)C(=O)O [^13C6-leucine]
- steady state level of 13C6-leucine in CSF [1]: 10%
- steady state level of 13C6-leucine in plasma [1]: 14%
- time to reach steady state levels in plasma and CSF [1]: within an hour

Molecule: ApoE: human apolipoprotein E, CNS-derived, purified from CSF
- fractional synthesis rate (FSR) of ApoE ([2]; CSF, young normal controls (FIG. 15 and 16)): approximately 2 percent per hour
- time in which approximately half of the ApoE pool is synthesized in the human brain ([2]; from FSR): about 24 hours

Molecule: Aβ: amyloid-β protein, CNS derived biomolecule whose metabolism is measured
- average fractional synthesis rate (FSR) of Aβ ([3]; 6 healthy young participants): 7.6 %/hr
- average fractional clearance rate (FCR) of Aβ ([3]; hours 24 to 36, 3 participants): 8.3 %/hr
- initial period with no measurable labeled Aβ ([3]; mean of n=6 (FIG. 10)): 4 h
- lag time before significant rises in labeled Aβ ([3]; three participants (FIG. 8)): 5 h
